This is an account of results in US5756109A, “Skin care compositions containing geranyl geraniol and retinol or retinyl esters” (Chesebrough-Pond's USA Co., Division of Conopco, Inc., priority 1996, dated 1998).

SMILES strings stand for the structures. Entries after “also recorded” stand apart in the source; their conditions may differ. Read-outs that look alike come from different tables or passages of the source.

One test has as its system ARAT. Description: In vitro microsomal esterification of retinol, ARAT (retinyl palmitate formation). As to conditions: 10 micromolar retinol, 1 hour, 37° C. The class given is biochemical, bovine. An excerpt: It is believed that the use of retinol or esters of retinol would be preferred over retinoic acid. Retinol is an endogenous compound which occurs naturally in the human body and is essential for normal epithelial cell differentiation. Retinol is also considered much safer than retinoic acid. Esters of retinol hydrolyze in-vivo to produce retinol. […] These esterification reactions are very efficient in keratinocytes--the majority (95%) of cellular retinoids are in the form of retinyl fatty esters.
(§1) Microsomes are obtained as described in: J. C.

For a further test, the system named is TGase I. Description: Transglutaminase (TGase I) ELISA normalized to DNA, keratinocyte differentiation (Example 1). It is filed as cell-based, human. Conditions: […]10^-7, […]10^-8 and […]10^-9 M. How it is done:
(§2) Human keratinocytes, isolated from neonatal foreskin by trypsin treatment were grown in Dulbecco Modification Eagle (DME) Hams F12 (1:1) medium/10% fetal calf serum in the presence of irradiated 3T3 mouse fibroblasts for establishing dividing keratinocyte colonies. Cells were grown under the above condition until their second passage and kept frozen for future use. Frozen second passage keratinocytes were thawed and plated into the above medium and grown for five days before they were switched to a serum-free MCDB 153-based medium keratinocyte growth medium (KGM) from Clonetics Corporation, San Diego, Calif., containing 0.15 mM Ca, or keratinocyte serum-free media (KSFM) from GIBCO containing 0.09 mM Ca). On day 7, when the cells were 80-90% confluent, they were trypsinized and plated in the serum-free medium for the various experiments.
During the process of terminal differentiation in the epidermis, a 15 nm thick layer of protein, known as the cornified envelope (CE) is formed on the inner surface of the cell periphery. The CE is composed of numerous distinct proteins which have been cross-linked together by the formation of N^E -(γ-glutamyl) lysine isodipeptide bonds catalyzed by the action of at least two different transglutaminases (TGases) expressed in the epidermis. TGase I is expressed in abundance in the differentiated layers of the epidermis, especially the granular layer, but is absent in the undifferentiated basal epidermis. […]
Keratinocytes (cultured as described above) were plated in 96 well plates at a density of 3,000 cells per well in 200 μl media. […] The absorbance of samples was read at 492 nm in the plate reader. […] TGase levels were determined by subtracting background from the readings from each treatment and determining mean±s.d. for the replicates exposed to both Ab.
The level of TGase-1 detected after treatment of the cells could be influenced by cell number, i.e., the greater the number of cells the greater the level of TGase-1 detected. […]
Background: ELISA stands for enzyme-linked immunosorbent assay.

Test [1] has as its system Human keratinocytes. The experiment in a line: 3H-thymidine incorporation, keratinocyte proliferation (Example 3). The class given is cell-based. As to conditions: for activity at […]: Homo sapiens, Keratinocyte, 250 nM, read-out: % Control (thymidine incorporation). How it is done: as §2
The incorporation of ^3 H-thymidine by cultured keratinocytes was used as an assay of keratinocyte proliferation. Thymidine is one of four deoxynucleosides which are the monomeric units of DNA, the universal library of genetic information in the animal kingdom. Prior to cell division of a somatic cell such as a keratinocyte, the complete genome of the cell undergoing cell division is replicated. This involves large scale DNA synthesis by the cell and enables both daughter cells to receive identical copies of the genetic material. When 3H-thymidine is included in the culture media of keratinocytes which are synthesizing DNA in preparation for cell division then the labelled nucleoside is incorporated into the newly synthesized DNA. The extent of incorporation of ^3 H-thymidine into a population of cells is proportional to the rate of DNA synthesis by this population of cells and therefore an indication of their cellular proliferation.
For Example 3, the following procedure was employed to measure thymidine incorporation:
Human keratinocytes were plated in 24-well plates at a density of 40,000 cells/well in 1 ml keratinocyte growth media. The cells were allowed to grow until they were 60-70% confluent (approx. 4 days), after which they were treated (in triplicate) with test agents in media for 4 hours. Tritiated thymidine (1 microcurie/ml) was then added, and the cells were incubated for an additional 18 hrs. The medium was removed and the cells were incubated for 30 minutes with ice cold 10% trichloroccetic acid. The cells were then washed 5× with 5% TCA and dissolved in 0.5 ml 0.1M NaOH. After neutralization with 0.1M HCl, aliquots were removed to measure protein and radioactivity by liquid scintillation counting.
^3 H-Thymidine incorporation was measured according to the procedure described in Materials and Methods section above.

In a further test the test system is retinol esterification. Description: In vitro microsomal esterification of retinol, ARAT and LRAT together (statements in words). Conditions: compared with farnesol. It is filed as biochemical, bovine.
From the text: as §1

Test [2] deals with Human keratinocytes. Description: 3H-thymidine incorporation, keratinocyte proliferation (Example 1). The class given is cell-based. As to conditions: […]10^-7, […]10^-8 and […]10^-9 M; over ethanol control and retinol treatments. The protocol:
as §2
The incorporation of ^3 H-thymidine by cultured keratinocytes was used as an assay of keratinocyte proliferation. […]
Keratinocytes (that were cultured as described above) were plated in 24 well plates at a density of about 20,000 cells per well in 1 ml media. […] Disintegrations per minute (DPM) from ^3 H labelling of DNA was determined by liquid scintillation counting of 900 μl of the cell preparation. Thymidine incorporation results were expressed as DPM/μg protein.
(Incorporation of labelled thymidine or its analogues reports DNA synthesis.)

Turning to `CC(C)=CCCC(C)=CCCC(C)=CCO` [Farnesol, farnesol], the “% INHIB. ARAT” value in the test on ARAT (10 μM) turned out to be 20%; in the test with ARAT (100 μM) it was 43%.

`CC1=C(/C=C/C(C)=C/C=C/C(C)=C/CO)C(C)(C)CCC1` [ROH, Retinol]: in the test on TGase I, the “decrease in transglutaminase level (in words)” value is on record as “dose dependent”. Moreover, the figures for the activity at […] in the test on Human keratinocytes [1] (Experiment #1) and in the test on Human keratinocytes [1] (Experiment #2) were 108% and 107%, respectively.

On to `CC(C)=CCC/C(C)=C/CC/C(C)=C/CC/C(C)=C/CO` [Geranyl Geraniol, geranyl geraniol], for which the “inhibition of retinol esterification (in words)” value in the test on retinol esterification was “substantially more potent esterification inhibitor, than farnesol; also recorded: substantially more potent at inhibiting retinol esterification than other terpenes, e.g., farnesol”. For the same molecule, the “% INHIB. ARAT” value in the test on ARAT (10 μM) turned out to be 38%; in the test on ARAT (100 μM), 81%. Also, in the test with Human keratinocytes [1] (10 nM geranyl geraniol with 250 nM retinol, compared with retinoic acid), the “proliferation enhancing effect of retinol (in words)” value is given as “significantly increase the proliferation enhancing effect of retinol to a level similar to that which can be achieved with a comparable amount of retinoic acid”.

`CC1=C(/C=C/C(C)=C/C=C/C(C)=C/C(=O)O)C(C)(C)CCC1` [RA, Retinoic Acid]: the “keratinocyte proliferation (in words)” value in the test on Human keratinocytes [2] is on record as “significantly increased keratinocyte proliferation”. The “decrease in transglutaminase level (in words)” value with TGase I was “dose dependent”. The “keratinocyte differentiation (in words)” value in the test with TGase I (over ethanol control and corresponding retinol treatments) is reported as “decreased keratinocyte differentiation”. In addition, the figures for the activity at […] in the test on Human keratinocytes [1] (Experiment #1) and in the test on Human keratinocytes [1] (Experiment #2) were 156% and 163%, respectively.
